We go through nine molecules from patent publication US4584186A, “Radiolabelled metallocene derivatives” (Mallinckrodt, Diagnostica (Holland) B.V., priority 1982, dated 1986).

The conditions of series [1]: rat, in vivo; cited from earlier work.
Series [2] in a line: urinary excretion and organ distribution in mice with increasing doses of inactive carrier. Conditions: inactive carrier for labelled ruthenocenoylglycine.
Series [3] in a line: organ distribution of radioactivity in mouse. Conditions: approx. 0.5 umole/kg.
For series [4] the following is noted: rabbit, in vivo.
Series [5] in a line: renal clearance after administration to dogs (single injection method). It counts as in vivo, dog (beagle). Conditions: for clearance in words: dog; for clearance: intravenous. On the procedure: The renal clearance by tubular excretion is a measure for the renal function was determined in two dogs, viz. beagles with body weights of 13.8 kg (dog a) and 14.8 kg (dog b) respectively by the generally recognized single injection method, in broad outline as described in Example VII. As radioactive materials were used iodine-131 labelled o-iodohippuric acid sodium salt (I-131 Hippuran), indium-111 DTPA (diethylene triamine pentaacetic acid) and ruthenium-97 labelled ruthenocenoylglycine. Indium-111DTP is also recommended to be used in radiodiagnostic compositions for examination of the renal glomerular filtration function. The time intervals between the various administrations were chosen in such a way, that no interference between the radioactive materials could occur. The radioactive materials were administered intraveneously, blood samples were collected 5, 10, 15, 30, 60 and 90 minutes after administration. The emitted radioactivity was determined with a gamma camera. The decreasing radioactivity of the successive blood samples is a measure for the elimination of the radioactive compound from the blood.

Structures can show the parent of a compound that is named as a salt.

`NC(=O)[c-]1cccc1.[Ru+2].c1cc[cH-]c1` [ruthenocene monocarboxylic acid amide]: the “accumulation of radioactivity in lung and liver relative to kidney” value in series [1] is “at least equal amounts as in the kidney”.

`Nc1ccc(C(=O)NCC(=O)O)cc1` [para-aminohippuric acid (salt), para-aminohippuric acid]: the “results when used as inactive carrier instead of ruthenocenoyl- or ferrocenoylglycine” value in series [2] is reported as “Comparable results”.

Turning to `CCOC(=O)CNC(=O)[c-]1cccc1.[Ru+2].c1cc[cH-]c1` [Rc glycine ester, ruthenocenoyl ethylglycinate, labelled with ruthenium-103], in series [3] (after 1 hour), the 103Ru conc. kidney was 141 dose/% body/wt, the 103Ru conc. liver is listed as 43 dose/% body/wt and the 103Ru conc. lung was 6 dose/% body/wt. In addition, in series [3] (after 3 hours), the 103Ru conc. kidney is reported as 90 dose/% body/wt, the 103Ru conc. liver turned out to be 24 dose/% body/wt and the 103Ru conc. lung is 2.6 dose/% body/wt. Further, in series [3] (after 6 hours), the 103Ru conc. kidney turned out to be 125 dose/% body/wt, the 103Ru conc. liver is 3.5 dose/% body/wt and the 103Ru conc. lung came to 3.0 dose/% body/wt.

Take `O=C(O)CNC(=O)c1ccccc1I` [ortho-iodohippuric acid (salt), ortho-iodohippuric acid]: the “results when used as inactive carrier instead of ruthenocenoyl- or ferrocenoylglycine” value in series [2] is on record as “Comparable results”.

In the case of `O=C(O)CNC(=O)[c-]1cccc1.[Ru+2].c1cc[cH-]c1` [Rc glycine, ruthenocenoylglycine, labelled with ruthenium-103], in series [4], the “accumulation in the kidneys and excretion” value is on record as “very rapid accumulation in the kidneys followed by a rapid excretion”; the “renal clearance (general statement)” value is reported as “even faster than that of iodohippuric acid sodium salt labelled with iodine-125”; the “renal clearance compared with iodine-125 labelled o-iodohippuric acid sodium salt” value was “cleared more rapidly than iodine-125 labelled o-iodohippuric acid sodium salt”.

Turning to `O=C(O)CNC(=O)[c-]1cccc1.[Ru+2].c1cc[cH-]c1` [Ru-97 ruthenocenoylglycine, ruthenium-97 labelled ruthenocenoylglycine], the clearance in words result in series [5] (in vivo) is “faster than that of labelled o-iodohippuric acid salt”.

Consider “indium-111 DTPA (diethylene triamine pentaacetic acid) [In - 111 DTPA]”, for which the clearance in series [5] (dog a, beagle 13.8 kg) amounted to 79.6 mL/min; in series [5] (dog b, beagle 14.8 kg), 62.2 mL/min. In addition, the clearance in words entry in series [5] (comparison of the three radioactive compounds) was “comparatively slow”.

For `O=C(O)CNC(=O)[c-]1cccc1.O=C(O)CNC(=O)[c-]1cccc1.[Ru+2]` [ruthenocenoyl-1,1'-diglycine], in series [4], the “accumulation in the kidneys and excretion” value is “very rapid accumulation in the kidneys followed by a rapid excretion”.

Take `[Ru+2].c1cc[cH-]c1.c1cc[cH-]c1` [ruthenium-103 labelled ruthenocene, ruthenocene]: the “accumulation of radioactivity in lung and liver relative to kidney” value in series [1] is listed as “at least equal amounts as in the kidney”.
